Tests used:
[1] = tested on: Glomerella lagenarium (Colletotrichum lagenarium); experiment: Example B5: Glomerella lagenarium (Colletotrichum lagenarium)/Liquid Culture (Anthracnose); type: cell-based; settings: Colletotrichum orbiculare, liquid culture, photometrically 3 to 4 days after application, read-out: control of Glomerella lagenarium
Description: Example B5: Glomerella lagenarium (Colletotrichum lagenarium)/Liquid Culture (Anthracnose)
(§1) Conidia of the fungus from cryogenic storage are directly mixed into nutrient broth (PDB potato dextrose broth). After placing a (DMSO) solution of test compound into a microtiter plate (96-well format), the nutrient broth containing the fungal spores is added. The test plates are incubated at 24° C. and the inhibition of growth is measured photometrically 3 to 4 days after application.

[2] = tested on: Mycosphaerella graminicola (Septoria tritici); experiment: Example B21: Mycosphaerella graminicola (Septoria tritici)/Liquid Culture (Septoria Blotch); type: cell-based; settings: Zymoseptoria tritici, liquid culture, photometrically 4-5 days after application, read-out: control of Mycosphaerella graminicola
Description: Example B21: Mycosphaerella graminicola (Septoria tritici)/Liquid Culture (Septoria Blotch)
as §1, with “determined” for “measured”, “4-5” for “3 to 4”

Pyrenophora teres = experiment: Example B18: Pyrenophora teres/Barley/Leaf Disc Preventative (Net Blotch); type: in vivo; settings: foliar, barley leaf segments, inoculated 2 days after application
Description: Example B18: Pyrenophora teres/Barley/Leaf Disc Preventative (Net Blotch)
Barley leaf segments cv. Hasso are placed on agar in a multiwell plate (24-well format) and sprayed with the formulated test compound diluted in water. The leaf segments are inoculated with a spore suspension of the fungus 2 days after application. The inoculated leaf segments are incubated at 20° C. and 65% rh under a light regime of 12 h light/12 h darkness in a climate cabinet and the activity of a compound is assessed as disease control compared to untreated when an appropriate level of disease damage appears in untreated check leaf segments (5-7 days after application).

[3] = tested on: Monographella nivalis (Microdochium nivale); experiment: Example B12: Monographella nivalis (Microdochium nivale)/Liquid Culture (Foot Rot Cereals); type: cell-based; settings: liquid culture, photometrically 4 to 5 days after application, read-out: control of Monographella nivalis
Description: Example B12: Monographella nivalis (Microdochium nivale)/Liquid Culture (Foot Rot Cereals)
as §1, with “is determined” for “is measured”, “photometrically 4” for “photometrically 3”, “to 5” for “to 4”

[4] = tested on: Mycosphaerella arachidis (Cercospora arachidicola); experiment: Example B13: Mycosphaerella arachidis (Cercospora arachidicola)/Liquid Culture (Early Leaf Spot); type: cell-based; settings: liquid culture, photometrically 4 to 5 days after application, read-out: control of Mycosphaerella arachidis
Description: Example B13: Mycosphaerella arachidis (Cercospora arachidicola)/Liquid Culture (Early Leaf Spot)
as §1, with “is determined” for “is measured”, “photometrically 4” for “photometrically 3”, “to 5” for “to 4”

[5] = tested on: Botryotinia fuckeliana (Botrytis cinerea); experiment: Example B2: Botryotinia fuckeliana (Botrytis cinerea)/Liquid Culture (Gray Mould); type: cell-based; settings: liquid culture, growth inhibition photometrically 3 to 4 days after application, read-out: control of Botryotinia fuckeliana
Description: Example B2: Botryotinia fuceliana (Botrytis cinerea)/Liquid Culture (Gray Mould)
as §1, with “(Vogels” for “(PDB potato dextrose”, “determined” for “measured”

[6] = tested on: Phaeosphaeria nodorum (Septoria nodorum); experiment: Example B11: Phaeosphaeria nodorum (Septoria nodorum)/Wheat/Leaf Disc Preventative (Glume Blotch); type: in vivo; settings: Parastagonospora nodorum, foliar, wheat leaf segments, inoculated 2 days after application
Description: Example B11: Phaeosphaeria nodorum (Septoria nodorum)/Wheat/Leaf Disc Preventative (Glume Blotch)
Wheat leaf segments cv. Kanzler are placed on agar in a multiwell plate (24-well format) and sprayed with the formulated test compound diluted in water. The leaf disks are inoculated with a spore suspension of the fungus 2 days after application. The inoculated test leaf disks are incubated at 20° C. and 75% rh under a light regime of 12 h light/12 h darkness in a climate cabinet and the activity of a compound is assessed as percent disease control compared to untreated when an appropriate level of disease damage appears in untreated check leaf disks (5-7 days after application).

Cc1c(C2CN(C(=O)c3nnc(-c4ccc(F)cc4F)o3)Cc3ccccc32)cnn1C (centres unmarked) [X.01, [5-(2,4-difluorophenyl)-1,3,4-oxadiazol-2-yl]-[4-(1,5-dimethylpyrazol-4-yl)-3,4-dihydro-1H-isoquinolin-2-yl]methanone]
≥ 80%: inhibition of growth at 20 ppm [1] | inhibition of growth at 20 ppm [2] | pest or weed control at 200 ppm (Pyrenophora teres) | inhibition of growth at 20 ppm [3]

CCCc1nnc(C(=O)N2Cc3ccccc3C(c3cnn(C)c3C)C2)s1 (centres unmarked) [X.03, [4-(1,5-dimethylpyrazol-4-yl)-3,4-dihydro-1H-isoquinolin-2-yl]-(5-propyl-1,3,4-thiadiazol-2-yl)methanone]
≥ 80%: inhibition of growth at 20 ppm [1] | inhibition of growth at 20 ppm [2] | inhibition of growth at 20 ppm [4]

Cc1c(C2CN(C(=O)c3nnc(C4CCCCC4)s3)Cc3ccccc32)cnn1C (centres unmarked) [X.04, (5-cyclohexyl-1,3,4-thiadiazol-2-yl)-[4-(1,5-dimethylpyrazol-4-yl)-3,4-dihydro-1H-isoquinolin-2-yl]methanone]
≥ 80%: inhibition of growth at 20 ppm [1] | inhibition of growth at 20 ppm [2] | inhibition of growth at 20 ppm [4] | inhibition of growth at 20 ppm [3]

COc1ccc2c(c1)[C@@H](c1cnn(C)c1)CN(C(=O)c1cc(-c3ccc(F)cc3F)on1)[C@H]2C [X.05, [5-(2,4-difluorophenyl)isoxazol-3-yl]-[(1S,4S)-6-methoxy-1-methyl-4-(1-methylpyrazol-4-yl)-3,4-dihydro-1H-isoquinolin-2-yl]methanone]
≥ 80%: inhibition of growth at 20 ppm [2] | inhibition of growth at 20 ppm [4] | inhibition of growth at 20 ppm [3] | inhibition of growth at 20 ppm [5]

Cn1cc([C@]2(C)CN(C(=O)c3nnc(-c4ccc(F)cc4F)s3)Cc3ccccc32)cn1 [X.06, [5-(2,4-difluorophenyl)-1,3,4-thiadiazol-2-yl]-[(4R)-4-methyl-4-(1-methylpyrazol-4-yl)-1,3-dihydroisoquinolin-2-yl]methanone]
≥ 80%: inhibition of growth at 20 ppm [1] | inhibition of growth at 20 ppm [2] | inhibition of growth at 20 ppm [4] | pest or weed control at 200 ppm (Pyrenophora teres) | pest or weed control at 200 ppm [6] | inhibition of growth at 20 ppm [3] | inhibition of growth at 20 ppm [5]

Cn1cc(C2(C)CN(C(=O)c3nnc(-c4ccc(F)cc4F)s3)Cc3ccccc32)cn1 (centres unmarked) [X.07, [5-(2,4-difluorophenyl)-1,3,4-thiadiazol-2-yl]-[4-methyl-4-(1-methylpyrazol-4-yl)-1,3-dihydroisoquinolin-2-yl]methanone]
≥ 80%: inhibition of growth at 20 ppm [1] | inhibition of growth at 20 ppm [2] | inhibition of growth at 20 ppm [4] | inhibition of growth at 20 ppm [3] | inhibition of growth at 20 ppm [5]

CC(=O)c1c(C2CN(C(=O)c3cc(-c4ccc(F)cc4F)on3)Cc3ccccc32)cnn1C (centres unmarked) [X.08, 1-[4-[2-[5-(2,4-difluorophenyl)isoxazole-3-carbonyl]-3,4-dihydro-1H-isoquinolin-4-yl]-2-methyl-pyrazol-3-yl]ethanone]
≥ 80%: inhibition of growth at 20 ppm [1] | inhibition of growth at 20 ppm [2] | inhibition of growth at 20 ppm [4] | pest or weed control at 200 ppm (Pyrenophora teres) | inhibition of growth at 20 ppm [3]

COC(=O)C1c2ccccc2C(c2cnn(C)c2)CN1C(=O)c1cc(-c2ccc(F)cc2F)on1 (centres unmarked) [X.09, methyl 2-[5-(2,4-difluorophenyl)isoxazole-3-carbonyl]-4-(1-methylpyrazol-4-yl)-3,4-dihydro-1H-isoquinoline-1-carboxylate]
≥ 80%: inhibition of growth at 20 ppm [2] | inhibition of growth at 20 ppm [4] | pest or weed control at 200 ppm [6] | inhibition of growth at 20 ppm [3] | inhibition of growth at 20 ppm [5]

Cn1cc(C2CN(C(=O)c3nnc(-c4ccc(F)cc4)o3)Cc3ccccc32)cn1 (centres unmarked) [X.10, [5-(4-fluorophenyl)-1,3,4-oxadiazol-2-yl]-[4-(1-methylpyrazol-4-yl)-3,4-dihydro-1H-isoquinolin-2-yl]methanone]
≥ 80%: inhibition of growth at 20 ppm [1] | inhibition of growth at 20 ppm [2] | pest or weed control at 200 ppm (Pyrenophora teres) | pest or weed control at 200 ppm [6] | inhibition of growth at 20 ppm [3]

Cn1ncc(C2CN(C(=O)c3cc(-c4ccc(F)cc4F)on3)Cc3ccccc32)c1Cl (centres unmarked) [X.11, [4-(5-chloro-1-methyl-pyrazol-4-yl)-3,4-dihydro-1H-isoquinolin-2-yl]-[5-(2,4-difluorophenyl)isoxazol-3-yl]methanone]
≥ 80%: inhibition of growth at 20 ppm [1] | inhibition of growth at 20 ppm [2] | inhibition of growth at 20 ppm [4] | pest or weed control at 200 ppm (Pyrenophora teres) | pest or weed control at 200 ppm [6] | inhibition of growth at 20 ppm [3] | inhibition of growth at 20 ppm [5]

Cn1ncc(C2CN(C(=O)c3cc(-c4ccc(F)cc4F)on3)Cc3ccccc32)c1F (centres unmarked) [X.12, [5-(2,4-difluorophenyl)isoxazol-3-yl]-[4-(5-fluoro-1-methyl-pyrazol-4-yl)-3,4-dihydro-1H-isoquinolin-2-yl]methanone]
≥ 80%: inhibition of growth at 20 ppm [1] | inhibition of growth at 20 ppm [2] | inhibition of growth at 20 ppm [4] | pest or weed control at 200 ppm (Pyrenophora teres) | pest or weed control at 200 ppm [6] | inhibition of growth at 20 ppm [3] | inhibition of growth at 20 ppm [5]

Cn1cc(C2c3ccccc3CN(C(=O)c3cc(-c4ccc(F)cc4F)on3)C2(C)C)cn1 (centres unmarked) [X.13, [5-(2,4-difluorophenyl)isoxazol-3-yl]-[3,3-dimethyl-4-(1-methylpyrazol-4-yl)-1,4-dihydroisoquinolin-2-yl]methanone]
≥ 80%: inhibition of growth at 20 ppm [1] | inhibition of growth at 20 ppm [2] | inhibition of growth at 20 ppm [4] | pest or weed control at 200 ppm (Pyrenophora teres) | pest or weed control at 200 ppm [6] | inhibition of growth at 20 ppm [3] | inhibition of growth at 20 ppm [5]

Cc1nn(C)c(C)c1C1CN(C(=O)c2cc(-c3ccc(F)cc3F)on2)Cc2ncccc21 (centres unmarked) [X.15, [5-(2,4-difluorophenyl)isoxazol-3-yl]-[5-(1,3,5-trimethylpyrazol-4-yl)-6,8-dihydro-5H-1,7-naphthyridin-7-yl]methanone]
≥ 80%: inhibition of growth at 20 ppm [1] | inhibition of growth at 20 ppm [2] | inhibition of growth at 20 ppm [4] | pest or weed control at 200 ppm (Pyrenophora teres) | inhibition of growth at 20 ppm [3]

Cn1cc(C2CN(C(=O)c3cc(C4CCCCC4)no3)Cc3ccccc32)cn1 (centres unmarked) [X.18, (3-cyclohexylisoxazol-5-yl)-[4-(1-methylpyrazol-4-yl)-3,4-dihydro-1H-isoquinolin-2-yl]methanone]
≥ 80%: inhibition of growth at 20 ppm [1] | inhibition of growth at 20 ppm [2] | inhibition of growth at 20 ppm [4] | inhibition of growth at 20 ppm [3]

Cn1cc(C2CN(C(=O)c3nnc(-c4ccccc4)o3)Cc3ccccc32)cn1 (centres unmarked) [X.19, [4-(1-methylpyrazol-4-yl)-3,4-dihydro-1H-isoquinolin-2-yl]-(5-phenyl-1,3,4-oxadiazol-2-yl)methanone]
≥ 80%: inhibition of growth at 20 ppm [1] | inhibition of growth at 20 ppm [2] | inhibition of growth at 20 ppm [4] | inhibition of growth at 20 ppm [3] | inhibition of growth at 20 ppm [5]

Cn1cc(C2CN(C(=O)c3cc(-c4ccncc4)on3)Cc3ccccc32)cn1 (centres unmarked) [X.23, [4-(1-methylpyrazol-4-yl)-3,4-dihydro-1H-isoquinolin-2-yl]-[5-(4-pyridyl)isoxazol-3-yl]methanone]
≥ 80%: inhibition of growth at 20 ppm [2]

Cc1c(C2CN(C(=O)c3nnc(-c4ncc(F)cc4F)s3)Cc3ccccc32)cnn1C (centres unmarked) [X.28, [5-(3,5-difluoro-2-pyridyl)-1,3,4-thiadiazol-2-yl]-[4-(1,5-dimethylpyrazol-4-yl)-3,4-dihydro-1H-isoquinolin-2-yl]methanone]
≥ 80%: inhibition of growth at 20 ppm [1] | inhibition of growth at 20 ppm [2] | inhibition of growth at 20 ppm [4] | pest or weed control at 200 ppm (Pyrenophora teres) | pest or weed control at 200 ppm [6]

From patent US20260198498A1, “FUNGICIDAL COMPOSITIONS” (SYNGENTA CROP PROTECTION AG, priority 2022, published 2026)
